Measured values as given in ChEMBL document CHEMBL3132769, “Fragment growing to retain or alter the selectivity of anchored kinase hinge-binding fragments” (Medchemcomm, 2014).

Columns and labels:
[1] = molecular target: Tyrosine-protein kinase ABL2 (Homo sapiens) (UniProt P42684); test: Inhibition of human truncated Arg expressed in baculovirus assessed as substrate phosphorylation using fluorescence-labelled peptides as substrate at 0.06 uM after 90 mins by microfluidic peptide phosphorylation assay
[2] = system: Tyrosine-protein kinase ABL1 (Homo sapiens), P00519 [H396P]; test: Inhibition of human truncated ABL H396P mutant expressed in baculovirus assessed as substrate phosphorylation using fluorescence-labelled peptides as substrate at 0.06 uM after 90 mins by microfluidic peptide phosphorylation assay
[3] = system: T1, Receptor-type tyrosine-protein kinase FLT3 (Homo sapiens), P36888 [D835Y]; test: Inhibition of human FLT3 D835Y mutant catalytic domain expressed in baculovirus assessed as substrate phosphorylation using fluorescence-labelled peptides as substrate at 0.06 uM after 90 mins by microfluidic peptide phosphorylation assay
T1 sequence (whole entry): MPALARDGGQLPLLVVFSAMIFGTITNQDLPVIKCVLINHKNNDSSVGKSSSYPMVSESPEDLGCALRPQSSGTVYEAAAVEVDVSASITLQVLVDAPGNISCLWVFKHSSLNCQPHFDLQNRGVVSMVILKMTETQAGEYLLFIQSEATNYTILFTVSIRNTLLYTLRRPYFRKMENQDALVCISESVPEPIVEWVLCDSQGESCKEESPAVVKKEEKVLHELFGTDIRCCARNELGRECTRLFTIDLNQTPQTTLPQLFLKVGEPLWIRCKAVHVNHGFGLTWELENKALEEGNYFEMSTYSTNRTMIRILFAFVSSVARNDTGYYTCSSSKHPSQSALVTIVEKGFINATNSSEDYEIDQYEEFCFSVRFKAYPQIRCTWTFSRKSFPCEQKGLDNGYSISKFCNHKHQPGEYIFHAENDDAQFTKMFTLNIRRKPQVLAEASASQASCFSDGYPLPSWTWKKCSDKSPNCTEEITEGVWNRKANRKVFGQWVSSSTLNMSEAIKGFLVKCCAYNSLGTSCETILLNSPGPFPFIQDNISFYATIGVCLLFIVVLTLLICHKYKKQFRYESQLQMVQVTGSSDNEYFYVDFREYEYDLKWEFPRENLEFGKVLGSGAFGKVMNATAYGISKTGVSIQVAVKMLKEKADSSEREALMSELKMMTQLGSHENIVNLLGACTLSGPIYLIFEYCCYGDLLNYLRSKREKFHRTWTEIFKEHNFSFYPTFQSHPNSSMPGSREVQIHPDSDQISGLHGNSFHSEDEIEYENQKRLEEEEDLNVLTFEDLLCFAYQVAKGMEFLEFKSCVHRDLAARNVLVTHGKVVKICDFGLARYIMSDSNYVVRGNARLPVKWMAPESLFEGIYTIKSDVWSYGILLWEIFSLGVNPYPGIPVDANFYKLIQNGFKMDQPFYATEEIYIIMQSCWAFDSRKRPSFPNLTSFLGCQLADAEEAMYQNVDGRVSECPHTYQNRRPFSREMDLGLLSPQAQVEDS

[4] = system: Fibroblast growth factor receptor 2 (Homo sapiens), P21802 [N549H]; test: Inhibition of human FGFR2 N549H mutant catalytic domain expressed in baculovirus assessed as substrate phosphorylation using fluorescence-labelled peptides as substrate at 420 uM after 90 mins by microfluidic peptide phosphorylation assay
[5] = molecular target: Tyrosine-protein kinase Lck (Homo sapiens) (UniProt P06239); test: Inhibition of human full length LCK expressed in baculovirus assessed as substrate phosphorylation using fluorescence-labelled peptides as substrate at 420 uM after 90 mins by microfluidic peptide phosphorylation assay
[6] = molecular target: Ribosomal protein S6 kinase alpha-3 (Homo sapiens) (UniProt P51812); test: Inhibition of human full length RSK2 expressed in baculovirus assessed as substrate phosphorylation using fluorescence-labelled peptides as substrate at […] after 90 mins by microfluidic peptide phosphorylation assay
[7] = molecular target: Insulin receptor (Homo sapiens) (UniProt P06213); test: Inhibition of human INSR catalytic domain expressed in baculovirus assessed as substrate phosphorylation using fluorescence-labelled peptides as substrate at […] after 90 mins by microfluidic peptide phosphorylation assay
[8] = molecular target: Tyrosine-protein kinase ABL1 (Homo sapiens) (UniProt P00519); test: Inhibition of human full-length ABL expressed in baculovirus assessed as substrate phosphorylation using fluorescence-labelled peptides as substrate at 9 uM after 90 mins by microfluidic peptide phosphorylation assay
[9] = molecular target: Protein kinase C beta type (Homo sapiens) (UniProt P05771); test: Inhibition of human truncated PKC beta1 expressed in baculovirus assessed as substrate phosphorylation using fluorescence-labelled peptides as substrate at 95 uM after 90 mins by microfluidic peptide phosphorylation assay
Homo sapiens = species on record: Homo sapiens; test: Inhibition of human full length PKA expressed in baculovirus assessed as substrate phosphorylation using fluorescence-labelled peptides as substrate at 95 uM after 90 mins by microfluidic peptide phosphorylation assay
[10] = molecular target: Glycogen synthase kinase-3 beta (Homo sapiens) (UniProt P49841); test: Inhibition of human full length GSK-3 beta expressed in baculovirus assessed as substrate phosphorylation using fluorescence-labelled peptides as substrate at 8 uM after 90 mins by microfluidic peptide phosphorylation assay
[11] = molecular target: Ribosomal protein S6 kinase alpha-3 (Homo sapiens) (UniProt P51812); test: Inhibition of human full length RSK2 expressed in baculovirus assessed as substrate phosphorylation using fluorescence-labelled peptides as substrate at 1000 uM after 90 mins by microfluidic peptide phosphorylation assay
[12] = molecular target: Ribosomal protein S6 kinase alpha-5 (Homo sapiens) (UniProt O75582); test: Inhibition of human full length MSK1 expressed in baculovirus assessed as substrate phosphorylation using fluorescence-labelled peptides as substrate at 1000 uM after 90 mins by microfluidic peptide phosphorylation assay
[13] = molecular target: Tyrosine-protein kinase BTK (Homo sapiens) (UniProt Q06187); test: Inhibition of human full length BTK expressed in baculovirus assessed as substrate phosphorylation using fluorescence-labelled peptides as substrate at 1000 uM after 90 mins by microfluidic peptide phosphorylation assay
Sequence of Tyrosine-protein kinase BTK (Homo sapiens) (Q06187 whole entry): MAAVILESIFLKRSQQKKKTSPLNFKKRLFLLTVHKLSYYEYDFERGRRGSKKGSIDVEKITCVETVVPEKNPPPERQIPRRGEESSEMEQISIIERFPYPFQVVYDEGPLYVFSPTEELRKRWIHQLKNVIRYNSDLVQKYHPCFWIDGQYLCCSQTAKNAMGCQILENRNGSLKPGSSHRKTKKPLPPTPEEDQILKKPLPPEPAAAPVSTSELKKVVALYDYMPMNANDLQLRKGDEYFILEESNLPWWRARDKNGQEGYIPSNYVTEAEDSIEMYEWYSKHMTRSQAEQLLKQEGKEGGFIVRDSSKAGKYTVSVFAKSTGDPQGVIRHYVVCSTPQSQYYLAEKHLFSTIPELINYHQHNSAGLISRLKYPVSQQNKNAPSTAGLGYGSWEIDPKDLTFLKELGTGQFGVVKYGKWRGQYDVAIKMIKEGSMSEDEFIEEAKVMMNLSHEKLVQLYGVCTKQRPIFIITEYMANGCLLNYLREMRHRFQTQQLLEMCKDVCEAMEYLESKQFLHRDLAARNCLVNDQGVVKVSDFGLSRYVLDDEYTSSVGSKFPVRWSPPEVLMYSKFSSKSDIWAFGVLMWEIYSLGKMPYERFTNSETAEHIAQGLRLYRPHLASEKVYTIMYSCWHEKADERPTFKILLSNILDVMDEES

Sequence of Ribosomal protein S6 kinase alpha-3 (Homo sapiens) (P51812 whole entry, the tested form may be a part): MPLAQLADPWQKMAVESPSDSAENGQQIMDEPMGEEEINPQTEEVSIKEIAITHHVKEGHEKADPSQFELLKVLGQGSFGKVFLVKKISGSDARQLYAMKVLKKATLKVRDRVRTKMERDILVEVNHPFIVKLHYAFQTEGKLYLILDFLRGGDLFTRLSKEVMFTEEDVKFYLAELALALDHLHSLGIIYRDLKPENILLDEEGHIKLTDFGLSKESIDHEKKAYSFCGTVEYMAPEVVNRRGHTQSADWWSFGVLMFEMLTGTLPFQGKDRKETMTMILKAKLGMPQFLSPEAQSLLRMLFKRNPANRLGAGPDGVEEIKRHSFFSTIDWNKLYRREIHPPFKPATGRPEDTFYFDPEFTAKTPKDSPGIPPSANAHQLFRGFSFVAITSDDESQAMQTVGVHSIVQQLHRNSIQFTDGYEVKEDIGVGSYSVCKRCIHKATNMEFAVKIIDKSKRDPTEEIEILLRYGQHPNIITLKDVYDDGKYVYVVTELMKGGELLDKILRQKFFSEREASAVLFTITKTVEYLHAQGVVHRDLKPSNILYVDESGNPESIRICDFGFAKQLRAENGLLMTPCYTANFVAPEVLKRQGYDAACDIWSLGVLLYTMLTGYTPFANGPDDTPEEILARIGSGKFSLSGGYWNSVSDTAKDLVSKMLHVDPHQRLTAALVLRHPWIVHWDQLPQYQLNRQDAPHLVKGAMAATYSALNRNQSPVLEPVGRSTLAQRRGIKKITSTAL
Sequence of Tyrosine-protein kinase Lck (Homo sapiens) (P06239 2-509 limits assumed): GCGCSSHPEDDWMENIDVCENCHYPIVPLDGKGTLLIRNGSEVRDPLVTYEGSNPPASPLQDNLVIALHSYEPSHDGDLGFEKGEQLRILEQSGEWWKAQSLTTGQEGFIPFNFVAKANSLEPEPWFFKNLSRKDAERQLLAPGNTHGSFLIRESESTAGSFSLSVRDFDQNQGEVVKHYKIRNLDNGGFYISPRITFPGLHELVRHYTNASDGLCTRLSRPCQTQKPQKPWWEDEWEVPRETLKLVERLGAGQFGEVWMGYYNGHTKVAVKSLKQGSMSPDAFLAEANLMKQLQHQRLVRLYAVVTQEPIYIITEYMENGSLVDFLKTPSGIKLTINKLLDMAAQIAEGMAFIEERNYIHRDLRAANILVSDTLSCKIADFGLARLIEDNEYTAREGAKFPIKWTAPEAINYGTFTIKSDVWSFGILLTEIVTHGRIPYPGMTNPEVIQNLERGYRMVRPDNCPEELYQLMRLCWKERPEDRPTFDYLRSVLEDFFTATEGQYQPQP
Sequence of Tyrosine-protein kinase ABL2 (Homo sapiens) (P42684 whole entry, the tested form may be a part): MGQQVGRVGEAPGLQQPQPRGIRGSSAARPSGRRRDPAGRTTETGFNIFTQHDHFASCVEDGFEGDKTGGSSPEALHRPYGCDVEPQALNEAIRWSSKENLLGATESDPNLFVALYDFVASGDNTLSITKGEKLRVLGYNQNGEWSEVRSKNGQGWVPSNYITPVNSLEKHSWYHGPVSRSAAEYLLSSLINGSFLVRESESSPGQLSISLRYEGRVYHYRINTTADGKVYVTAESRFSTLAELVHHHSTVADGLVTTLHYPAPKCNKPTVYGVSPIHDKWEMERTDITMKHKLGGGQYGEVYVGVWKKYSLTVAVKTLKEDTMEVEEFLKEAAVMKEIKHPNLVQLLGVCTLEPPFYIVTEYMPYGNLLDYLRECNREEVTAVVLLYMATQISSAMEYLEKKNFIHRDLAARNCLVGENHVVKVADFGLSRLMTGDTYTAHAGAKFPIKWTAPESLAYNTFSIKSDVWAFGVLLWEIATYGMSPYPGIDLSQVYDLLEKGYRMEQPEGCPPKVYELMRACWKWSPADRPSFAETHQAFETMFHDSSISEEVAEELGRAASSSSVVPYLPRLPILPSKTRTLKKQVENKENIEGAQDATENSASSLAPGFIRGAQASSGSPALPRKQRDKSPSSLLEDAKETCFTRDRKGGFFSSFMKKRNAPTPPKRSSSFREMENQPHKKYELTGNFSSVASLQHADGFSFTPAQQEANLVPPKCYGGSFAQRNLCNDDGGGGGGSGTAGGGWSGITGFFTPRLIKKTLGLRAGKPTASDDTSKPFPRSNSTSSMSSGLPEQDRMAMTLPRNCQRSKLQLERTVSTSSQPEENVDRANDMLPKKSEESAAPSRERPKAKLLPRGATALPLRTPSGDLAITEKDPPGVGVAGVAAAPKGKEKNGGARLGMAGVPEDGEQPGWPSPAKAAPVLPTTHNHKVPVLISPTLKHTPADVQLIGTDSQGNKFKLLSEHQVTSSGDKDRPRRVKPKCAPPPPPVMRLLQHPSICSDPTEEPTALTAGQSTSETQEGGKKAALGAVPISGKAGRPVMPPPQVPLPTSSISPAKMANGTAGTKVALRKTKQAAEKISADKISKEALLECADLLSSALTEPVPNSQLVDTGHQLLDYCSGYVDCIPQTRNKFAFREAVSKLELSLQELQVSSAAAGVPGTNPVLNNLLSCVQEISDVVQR
Sequence of Protein kinase C beta type (Homo sapiens) (P05771 2-671 limits assumed): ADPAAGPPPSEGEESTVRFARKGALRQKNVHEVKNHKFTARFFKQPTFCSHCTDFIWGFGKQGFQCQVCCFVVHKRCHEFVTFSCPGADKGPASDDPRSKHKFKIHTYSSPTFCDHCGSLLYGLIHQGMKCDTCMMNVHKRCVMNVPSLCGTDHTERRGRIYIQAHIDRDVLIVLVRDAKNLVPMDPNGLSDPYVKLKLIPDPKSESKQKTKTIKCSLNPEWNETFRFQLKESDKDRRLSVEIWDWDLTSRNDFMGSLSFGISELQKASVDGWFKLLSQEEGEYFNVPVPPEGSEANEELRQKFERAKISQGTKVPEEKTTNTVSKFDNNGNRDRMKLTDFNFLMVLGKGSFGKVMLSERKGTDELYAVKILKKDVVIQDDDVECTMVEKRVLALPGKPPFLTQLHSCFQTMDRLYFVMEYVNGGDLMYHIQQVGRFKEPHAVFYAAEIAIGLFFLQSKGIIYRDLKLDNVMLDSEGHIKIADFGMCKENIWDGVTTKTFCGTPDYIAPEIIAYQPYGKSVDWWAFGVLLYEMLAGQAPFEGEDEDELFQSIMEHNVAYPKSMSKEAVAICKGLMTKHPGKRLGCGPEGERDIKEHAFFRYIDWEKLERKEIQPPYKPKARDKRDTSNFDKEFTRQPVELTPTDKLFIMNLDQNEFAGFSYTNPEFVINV
Sequence of Glycogen synthase kinase-3 beta (Homo sapiens) (P49841 whole entry, looked up): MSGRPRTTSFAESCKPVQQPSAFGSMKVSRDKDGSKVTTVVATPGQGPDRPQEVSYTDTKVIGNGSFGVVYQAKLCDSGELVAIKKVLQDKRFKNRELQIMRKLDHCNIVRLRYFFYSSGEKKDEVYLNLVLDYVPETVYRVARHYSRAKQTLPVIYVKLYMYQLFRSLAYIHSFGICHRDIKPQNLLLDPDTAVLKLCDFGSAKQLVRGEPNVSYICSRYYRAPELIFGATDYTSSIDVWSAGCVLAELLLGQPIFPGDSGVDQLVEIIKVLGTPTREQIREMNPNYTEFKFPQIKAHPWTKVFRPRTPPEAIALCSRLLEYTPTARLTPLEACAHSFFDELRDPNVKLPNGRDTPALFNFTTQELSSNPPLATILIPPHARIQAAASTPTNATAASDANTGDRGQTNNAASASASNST
Sequence of Ribosomal protein S6 kinase alpha-5 (Homo sapiens) (O75582 whole entry, looked up): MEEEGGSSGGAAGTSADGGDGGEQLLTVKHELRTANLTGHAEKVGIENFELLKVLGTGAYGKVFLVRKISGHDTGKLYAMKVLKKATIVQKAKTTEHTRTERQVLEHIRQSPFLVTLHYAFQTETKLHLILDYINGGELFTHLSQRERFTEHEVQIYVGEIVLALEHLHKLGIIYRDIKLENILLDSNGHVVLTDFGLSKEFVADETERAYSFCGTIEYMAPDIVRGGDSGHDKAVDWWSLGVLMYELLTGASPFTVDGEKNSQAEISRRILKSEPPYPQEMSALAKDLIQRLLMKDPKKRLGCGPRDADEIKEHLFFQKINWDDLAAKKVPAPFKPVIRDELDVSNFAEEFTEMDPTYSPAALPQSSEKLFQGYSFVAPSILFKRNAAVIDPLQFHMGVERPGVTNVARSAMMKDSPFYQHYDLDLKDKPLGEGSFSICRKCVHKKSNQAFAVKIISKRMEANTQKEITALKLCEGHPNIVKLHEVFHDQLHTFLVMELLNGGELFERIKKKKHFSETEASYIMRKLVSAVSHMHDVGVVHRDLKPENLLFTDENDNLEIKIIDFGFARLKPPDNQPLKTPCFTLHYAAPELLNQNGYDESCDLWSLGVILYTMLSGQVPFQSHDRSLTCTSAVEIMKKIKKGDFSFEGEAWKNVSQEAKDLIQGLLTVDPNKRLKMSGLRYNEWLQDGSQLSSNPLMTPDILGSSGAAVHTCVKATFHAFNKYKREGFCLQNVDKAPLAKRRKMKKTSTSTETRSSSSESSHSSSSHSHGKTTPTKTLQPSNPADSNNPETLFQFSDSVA

NC1(Cc2ccc(Cl)cc2)CCN(c2ncnc3[nH]ccc23)CC1
inhibition [1]: 5% | inhibition [2]: 0.5% | inhibition [3]: 0%

c1nc(N2CCOCC2)c2nc[nH]c2n1
inhibition [4]: 89.5% | inhibition [5]: 67.5%

COC(=O)c1cnc(Nc2cnc(C#N)cn2)cc1NCC1CCNCC1
inhibition [6]: 42% | inhibition [7]: 7%

NCC1CN(c2ncnc3[nH]c4cnccc4c23)CCO1 (centres undefined)
inhibition [8]: 12%

NCCc1ccc(-c2ncnc3[nH]cnc23)cc1
inhibition [9]: 77% | inhibition (Homo sapiens): 97.5%

NCC1CCN(c2ncnc3[nH]ccc23)CC1
inhibition [10]: 0%

c1cnc2[nH]ccc2c1
inhibition [11]: 68.5% | inhibition [12]: 87% | inhibition [13]: 19%
